Test results published in patent US20210070748A1, “INHIBITORS OF BRUTONS TYROSINE KINASE” (Pharmacyclics LLC, priority 2015, published 2021).

What was measured:
Type in all cases: biochemical
JAK3 = molecular target: T1, JAK3 (Homo sapiens, UniProt P52333); assay: Inhibition of a panel of kinases, in vitro HotSpot kinase assay: JAK3; settings: D-compounds panel data; 1 μM ATP; read-out: IC50 JAK3
T1 sequence (P52333 1-1124): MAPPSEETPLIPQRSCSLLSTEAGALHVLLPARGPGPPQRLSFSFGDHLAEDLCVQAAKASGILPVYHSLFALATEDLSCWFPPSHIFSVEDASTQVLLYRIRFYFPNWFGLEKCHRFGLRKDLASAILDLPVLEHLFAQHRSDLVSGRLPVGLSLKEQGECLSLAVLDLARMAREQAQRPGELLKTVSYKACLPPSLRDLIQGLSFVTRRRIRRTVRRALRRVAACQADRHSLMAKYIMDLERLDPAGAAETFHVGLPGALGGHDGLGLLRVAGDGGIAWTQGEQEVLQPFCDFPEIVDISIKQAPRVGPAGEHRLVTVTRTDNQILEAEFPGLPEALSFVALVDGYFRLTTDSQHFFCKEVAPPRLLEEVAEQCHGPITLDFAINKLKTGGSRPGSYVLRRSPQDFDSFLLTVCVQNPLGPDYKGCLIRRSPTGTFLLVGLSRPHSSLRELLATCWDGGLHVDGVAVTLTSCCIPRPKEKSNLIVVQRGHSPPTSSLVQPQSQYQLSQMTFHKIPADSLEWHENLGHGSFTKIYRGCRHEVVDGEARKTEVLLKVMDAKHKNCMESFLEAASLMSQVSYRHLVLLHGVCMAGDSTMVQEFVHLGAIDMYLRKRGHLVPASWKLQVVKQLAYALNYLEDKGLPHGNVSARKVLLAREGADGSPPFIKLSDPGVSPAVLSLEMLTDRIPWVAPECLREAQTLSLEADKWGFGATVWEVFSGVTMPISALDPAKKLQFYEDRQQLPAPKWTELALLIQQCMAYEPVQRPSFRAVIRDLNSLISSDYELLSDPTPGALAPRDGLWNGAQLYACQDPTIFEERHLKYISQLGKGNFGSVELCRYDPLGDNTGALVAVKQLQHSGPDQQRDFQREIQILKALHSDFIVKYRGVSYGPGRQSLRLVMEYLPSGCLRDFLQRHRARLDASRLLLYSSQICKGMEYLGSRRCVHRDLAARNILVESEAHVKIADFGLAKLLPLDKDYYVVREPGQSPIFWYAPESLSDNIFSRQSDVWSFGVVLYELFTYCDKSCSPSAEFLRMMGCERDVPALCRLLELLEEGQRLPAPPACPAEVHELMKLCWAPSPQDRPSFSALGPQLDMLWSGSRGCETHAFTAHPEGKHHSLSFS

LCK = LCK (Homo sapiens, UniProt P06239); assay: Inhibition of a panel of kinases, in vitro HotSpot kinase assay: LCK; settings: D-compounds panel data; 1 μM ATP; read-out: IC50 LCK
Sequence of LCK (P06239 whole entry): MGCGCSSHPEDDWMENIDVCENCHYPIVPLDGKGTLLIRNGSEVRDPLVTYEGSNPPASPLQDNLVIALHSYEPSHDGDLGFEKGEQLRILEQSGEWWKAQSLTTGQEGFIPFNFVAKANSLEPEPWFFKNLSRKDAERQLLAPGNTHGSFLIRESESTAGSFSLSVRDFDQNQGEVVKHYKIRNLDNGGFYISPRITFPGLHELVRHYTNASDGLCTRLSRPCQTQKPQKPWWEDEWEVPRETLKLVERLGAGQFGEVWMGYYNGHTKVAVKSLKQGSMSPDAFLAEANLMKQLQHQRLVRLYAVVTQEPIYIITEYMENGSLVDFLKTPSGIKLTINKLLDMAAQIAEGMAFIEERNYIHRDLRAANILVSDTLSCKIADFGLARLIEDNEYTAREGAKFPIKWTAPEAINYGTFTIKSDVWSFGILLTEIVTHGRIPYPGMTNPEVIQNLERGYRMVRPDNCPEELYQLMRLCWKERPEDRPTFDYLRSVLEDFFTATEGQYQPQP

ITK = molecular target: T2, ITK (Homo sapiens, UniProt Q08881); assay: Inhibition of a panel of kinases, in vitro HotSpot kinase assay: ITK; settings: D-compounds panel data; 1 μM ATP
T2 sequence (Q08881 1-620): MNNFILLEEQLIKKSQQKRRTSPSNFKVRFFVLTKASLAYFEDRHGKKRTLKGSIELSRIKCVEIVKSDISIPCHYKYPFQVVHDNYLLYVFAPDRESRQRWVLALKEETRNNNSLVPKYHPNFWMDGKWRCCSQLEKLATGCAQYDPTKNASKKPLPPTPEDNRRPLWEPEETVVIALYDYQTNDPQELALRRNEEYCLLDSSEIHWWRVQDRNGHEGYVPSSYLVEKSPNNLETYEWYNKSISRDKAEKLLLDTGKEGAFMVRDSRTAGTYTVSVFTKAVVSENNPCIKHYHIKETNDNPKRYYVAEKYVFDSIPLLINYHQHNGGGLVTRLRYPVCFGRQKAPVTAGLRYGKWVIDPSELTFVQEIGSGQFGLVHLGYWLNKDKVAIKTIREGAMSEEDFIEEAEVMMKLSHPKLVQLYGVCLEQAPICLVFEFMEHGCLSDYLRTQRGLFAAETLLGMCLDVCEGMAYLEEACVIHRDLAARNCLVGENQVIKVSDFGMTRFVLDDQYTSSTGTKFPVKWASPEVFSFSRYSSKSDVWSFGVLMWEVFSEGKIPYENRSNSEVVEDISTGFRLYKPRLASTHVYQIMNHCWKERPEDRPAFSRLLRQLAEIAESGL
Description: (§1) The degree of inhibition of a panel of kinases is determined using the in vitro HotSpot kinase assay (purified enzymes, ^33P-ATP, an appropriate substrate and 1 μM ATP).

EGFR = EGFR (Homo sapiens, UniProt P00533); assay: Inhibition of a panel of kinases, in vitro HotSpot kinase assay: EGFR; settings: D-compounds panel data; 1 μM ATP
Sequence of EGFR (P00533 25-1210): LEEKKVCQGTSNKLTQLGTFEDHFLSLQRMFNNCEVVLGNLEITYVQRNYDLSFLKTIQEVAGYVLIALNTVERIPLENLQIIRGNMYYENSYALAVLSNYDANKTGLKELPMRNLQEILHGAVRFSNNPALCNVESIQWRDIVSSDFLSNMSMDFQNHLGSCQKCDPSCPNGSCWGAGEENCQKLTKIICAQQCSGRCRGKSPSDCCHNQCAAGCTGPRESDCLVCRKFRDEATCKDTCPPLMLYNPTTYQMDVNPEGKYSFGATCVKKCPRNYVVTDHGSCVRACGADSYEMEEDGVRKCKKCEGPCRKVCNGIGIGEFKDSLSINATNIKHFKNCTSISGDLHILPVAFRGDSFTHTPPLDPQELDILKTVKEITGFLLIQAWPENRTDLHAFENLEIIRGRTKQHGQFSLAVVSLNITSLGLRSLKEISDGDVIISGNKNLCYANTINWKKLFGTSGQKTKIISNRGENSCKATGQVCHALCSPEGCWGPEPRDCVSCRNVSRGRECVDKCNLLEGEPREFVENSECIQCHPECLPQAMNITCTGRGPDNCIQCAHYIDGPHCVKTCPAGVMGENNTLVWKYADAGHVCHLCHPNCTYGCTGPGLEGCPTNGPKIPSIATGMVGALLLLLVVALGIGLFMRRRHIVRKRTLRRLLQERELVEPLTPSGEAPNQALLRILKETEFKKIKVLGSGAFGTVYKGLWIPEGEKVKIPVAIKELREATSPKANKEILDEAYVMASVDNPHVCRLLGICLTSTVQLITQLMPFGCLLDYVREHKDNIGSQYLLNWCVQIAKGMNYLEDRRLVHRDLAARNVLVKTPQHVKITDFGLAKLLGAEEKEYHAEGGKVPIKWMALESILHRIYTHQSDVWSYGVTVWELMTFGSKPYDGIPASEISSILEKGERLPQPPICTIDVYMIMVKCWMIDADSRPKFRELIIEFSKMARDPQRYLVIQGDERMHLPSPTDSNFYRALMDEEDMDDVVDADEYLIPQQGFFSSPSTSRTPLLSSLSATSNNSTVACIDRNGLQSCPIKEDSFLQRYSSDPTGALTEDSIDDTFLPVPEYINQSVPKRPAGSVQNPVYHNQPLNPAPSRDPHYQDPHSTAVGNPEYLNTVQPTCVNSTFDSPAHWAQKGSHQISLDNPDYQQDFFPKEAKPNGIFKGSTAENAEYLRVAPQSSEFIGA
Description: as §1

SRC = SRC (Homo sapiens, UniProt P12931); assay: Inhibition of a panel of kinases, in vitro HotSpot kinase assay: SRC; settings: D-compounds panel data; 1 μM ATP
Sequence of SRC (P12931 whole entry): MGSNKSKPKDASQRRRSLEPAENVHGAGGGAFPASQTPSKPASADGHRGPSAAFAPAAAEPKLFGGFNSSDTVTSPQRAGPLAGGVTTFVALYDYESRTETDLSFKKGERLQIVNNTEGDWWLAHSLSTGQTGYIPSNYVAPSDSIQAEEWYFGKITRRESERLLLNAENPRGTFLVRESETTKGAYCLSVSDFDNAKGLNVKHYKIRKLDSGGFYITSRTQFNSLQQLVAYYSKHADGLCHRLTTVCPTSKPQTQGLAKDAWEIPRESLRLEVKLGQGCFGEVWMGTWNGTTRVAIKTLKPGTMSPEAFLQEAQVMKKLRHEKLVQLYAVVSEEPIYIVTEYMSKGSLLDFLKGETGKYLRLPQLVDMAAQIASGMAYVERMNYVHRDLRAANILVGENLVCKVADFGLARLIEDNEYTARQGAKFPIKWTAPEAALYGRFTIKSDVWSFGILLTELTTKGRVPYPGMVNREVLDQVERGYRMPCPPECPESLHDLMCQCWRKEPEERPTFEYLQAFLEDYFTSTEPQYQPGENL
Description: as §1

| IC50 (JAK3) [nM] | IC50 (LCK) [nM] | IC50 (ITK) [nM] | IC50 (EGFR) [nM] | IC50 (SRC) [nM] | Structure (SMILES) |
| --- | --- | --- | --- | --- | --- |
| > 10000 | 1000 to 10000 | 1000 to 10000 | > 10000 | > 10000 | C[C@@H]1[C@H](NC(=O)c2ccc(C3CC3)cc2F)CCCN1c1cnc(C(N)=O)c(Nc2ccc(CN3CCN(C)CC3)cn2)n1 [Example D-132, 5-[(2R,3R)-3-(4-cyclopropyl-2-fluorobenzamido)-2-methylpiperidin-1-yl]-3-({5-[(4-methylpiperazin-1-yl)methyl]pyridin-2-yl}amino)pyrazine-2-carboxamide] |
| 1000 to 10000 | 100 to 1000 | 100 to 1000 | 1000 to 10000 | 100 to 1000 | C[C@@H]1[C@H](NC(=O)c2ccc(C3CC3)cc2F)CCCN1c1cnc(C(N)=O)c(Nc2ccc(S(C)(=O)=O)cc2)n1 [Example D-133, 5-[(2R,3R)-3-(4-cyclopropyl-2-fluorobenzamido)-2-methylpiperidin-1-yl]-3-[(4-methanesulfonylphenyl)amino]pyrazine-2-carboxamide] |
| 1000 to 10000 | 100 to 1000 | 100 to 1000 | 1000 to 10000 | 100 to 1000 | C[C@@H]1[C@H](NC(=O)c2ccc(C3CC3)cc2)CCCN1c1cnc(C(N)=O)c(Nc2cnn(C)c2)n1 [Example D-135, 5-[(2R,3R)-3-(4-cyclopropylbenzamido)-2-methylpiperidin-1-yl]-3-[(1-methyl-1H-pyrazol-4-yl)amino]pyrazine-2-carboxamide] |
| > 10000 | > 10000 | > 10000 | 1000 to 10000 | > 10000 | C[C@@H]1[C@H](NC(=O)c2ccc(C3CC3)cc2F)CCCN1c1cnc(C(N)=O)c(Nc2ccc(S(=O)(=O)N3CCCC3)cc2)n1 [Example D-139, 5-[(2R,3R)-3-(4-cyclopropyl-2-fluorobenzamido)-2-methylpiperidin-1-yl]-3-{[4-(pyrrolidine-1-sulfonyl)phenyl]amino}pyrazine-2-carboxamide] |
| 100 to 1000 | 10 to 100 | 10 to 100 | 1000 to 10000 | 10 to 100 | C[C@@H]1[C@H](NC(=O)c2ccc(C3CC3)cc2)CCCN1c1cnc(C(N)=O)c(Nc2cc(CN3CCCCC3)ns2)n1 [Example D-140, 5-[(2R,3R)-3-(4-cyclopropylbenzamido)-2-methylpiperidin-1-yl]-3-{[3-(piperidin-1-ylmethyl)-1,2-thiazol-5-yl]amino}pyrazine-2-carboxamide] |
| > 10000 | 1000 to 10000 | > 10000 | 1000 to 10000 | 1000 to 10000 | C[C@@H]1CC[C@H](NC(=O)c2ccc(C3CC3)cc2)CN1c1cnc(C(N)=O)c(Nc2cnn(C)c2)n1 [Example D-145, 5-[(2R,5S)-5-(4-cyclopropylbenzamido)-2-methylpiperidin-1-yl]-3-[(1-methyl-1H-pyrazol-4-yl)amino]pyrazine-2-carboxamide] |
| 1000 to 10000 | 10 to 100 | 10 to 100 | 100 to 1000 | 10 to 100 | C[C@@H]1[C@H](NC(=O)c2ccc(C3CC3)cc2)CCCN1c1cnc(C(N)=O)c(Nc2ccc(N3CCN(C)CC3)c(F)c2)n1 [Example D-146, 5-[(2R,3R)-3-(4-cyclopropylbenzamido)-2-methylpiperidin-1-yl]-3-{[3-fluoro-4-(4-methylpiperazin-1-yl)phenyl]amino}pyrazine-2-carboxamide] |

Second part, the compound before the results:

| Structure (SMILES) | IC50 (JAK3) [nM] | IC50 (LCK) [nM] | IC50 (ITK) [nM] | IC50 (EGFR) [nM] | IC50 (SRC) [nM] |
| --- | --- | --- | --- | --- | --- |
| C[C@@H]1[C@H](NC(=O)c2ccc(C3CC3)cc2F)CCCN1c1cnc(C(N)=O)c(Nc2ccc(C3(C)CCN(C4CCC4)CC3)cc2)n1 [Example D-134, 3-{[4-(1-cyclobutyl-4-methylpiperidin-4-yl)phenyl]amino}-5-[(2R,3R)-3-(4-cyclopropyl-2-fluorobenzamido)-2-methylpiperidin-1-yl]pyrazine-2-carboxamide] | 100 to 1000 | 10 to 100 | 10 to 100 | 100 to 1000 | 10 to 100 |
| Cc1ccc(-c2cnc([C@H]3CCCN(c4cnc(C(N)=O)c(Nc5cc(C)ns5)n4)C3)[nH]2)cc1 [Example D-136, 3-[(3-methyl-1,2-thiazol-5-yl)amino]-5-[(3S)-3-[5-(4-methylphenyl)-1H-imidazol-2-yl]piperidin-1-yl]pyrazine-2-carboxamide] | 1000 to 10000 | 100 to 1000 | 1000 to 10000 | 100 to 1000 | 100 to 1000 |
| Cc1ccc(-c2cnc([C@@H]3CCCN(c4cnc(C(N)=O)c(Nc5cc(C)ns5)n4)C3)[nH]2)cc1 [Example D-137, 3-[(3-methyl-1,2-thiazol-5-yl)amino]-5-[(3R)-3-[5-(4-methylphenyl)-1H-imidazol-2-yl]piperidin-1-yl]pyrazine-2-carboxamide] | > 10000 | 1000 to 10000 | > 10000 | 1000 to 10000 | 1000 to 10000 |
| C[C@@H]1[C@H](NC(=O)c2ccc(C3CC3)cc2F)CCCN1c1cnc(C(N)=O)c(Nc2ccc(C3(C)CCN(C4CC4)CC3)cc2)n1 [Example D-138, 5-[(2R,3R)-3-(4-cyclopropyl-2-fluorobenzamido)-2-methylpiperidin-1-yl]-3-{[4-(1-cyclopropyl-4-methylpiperidin-4-yl)phenyl]amino}pyrazine-2-carboxamide] | 10 to 100 | 10 to 100 | 100 to 1000 | 100 to 1000 | 100 to 1000 |
| CN1CCC(n2cc(Nc3nc(N4CCC[C@@H](n5ccc6cc(C7CC7)ccc6c5=O)C4)cnc3C(N)=O)cn2)CC1 [Example D-141, 5-[(3R)-3-(6-cyclopropyl-1-oxo-1,2-dihydroisoquinolin-2-yl)piperidin-1-yl]-3-{[1-(1-methylpiperidin-4-yl)-1H-pyrazol-4-yl]amino}pyrazine-2-carboxamide] | 1000 to 10000 | 100 to 1000 | 100 to 1000 | 1000 to 10000 | 100 to 1000 |
| C[C@H]1CC[C@@H](NC(=O)c2ccc(C3CC3)cc2)CN1c1cnc(C(N)=O)c(Nc2cnn(C)c2)n1 [Example D-142, 5-[(2S,5R)-5-(4-cyclopropylbenzamido)-2-methylpiperidin-1-yl]-3-[(1-methyl-1H-pyrazol-4-yl)amino]pyrazine-2-carboxamide] | 100 to 1000 | 10 to 100 | 1000 to 10000 | 1000 to 10000 | 10 to 100 |
| C[C@@H]1CC[C@@H](NC(=O)c2ccc(C3CC3)cc2)CN1c1cnc(C(N)=O)c(Nc2cnn(C)c2)n1 [Example D-143, 5-[(2R,5R)-5-(4-cyclopropylbenzamido)-2-methylpiperidin-1-yl]-3-[(1-methyl-1H-pyrazol-4-yl)amino]pyrazine-2-carboxamide] | > 10000 | 1000 to 10000 | > 10000 | 1000 to 10000 | 1000 to 10000 |
| C[C@H]1CC[C@H](NC(=O)c2ccc(C3CC3)cc2)CN1c1cnc(C(N)=O)c(Nc2cnn(C)c2)n1 [Example D-144, 5-[(2S,5S)-5-(4-cyclopropylbenzamido)-2-methylpiperidin-1-yl]-3-[(1-methyl-1H-pyrazol-4-yl)amino]pyrazine-2-carboxamide] | > 10000 | 1000 to 10000 | > 10000 | > 10000 | 1000 to 10000 |
